Data reported in the supplement of paper PMC10307832.

Tests used:
Assay in all cases: relative viability (nuclei count vs DMSO), 5 days (fraction); higher = more cells survive
JZL-184 = compound: C1CN(CCC1C(C2=CC3=C(C=C2)OCO3)(C4=CC5=C(C=C4)OCO5)O)C(=O)OC6=CC=C(C=C6)[N+](=O)[O-] [JZL-184]
How it was run: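 Acceptance criteria were a control CV below 25% and at least one doubling per plate. Lung cancer cell lines in 1536-well plates got five library-drug doses (not always all listed) √10 apart by pinning and were left 5 days with no medium change. Viability divides treated-well nuclei by vehicle-well nuclei and is the median across plates. Nuclei were counted by MetaXpress from 4× Hoechst images.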

JZL-184 + Alpelisib = compound: C1CN(CCC1C(C2=CC3=C(C=C2)OCO3)(C4=CC5=C(C=C4)OCO5)O)C(=O)OC6=CC=C(C=C6)[N+](=O)[O-] [JZL-184] + Cc1nc(NC(=O)N2CCC[C@H]2C(N)=O)sc1-c1ccnc(C(C)(C)C(F)(F)F)c1 [Alpelisib] (partner 2 µM)
How it was run: (§1)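 Dosing by pin tool came one day after lung cancer cell lines were seeded in 1536-well plates, using either one drug or a fixed anchor-drug dose plus five library-drug doses (not always all listed) in √10 steps. After 5 days, nuclei were counted on 4× images. Relative viability is treated-well nuclei count divided by vehicle-well nuclei count, and values are medians of duplicate plates.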

JZL-184 + OSI-027 = compound: C1CN(CCC1C(C2=CC3=C(C=C2)OCO3)(C4=CC5=C(C=C4)OCO5)O)C(=O)OC6=CC=C(C=C6)[N+](=O)[O-] [JZL-184] + COc1cccc2cc(-c3nc([C@H]4CC[C@H](C(=O)O)CC4)n4ncnc(N)c34)[nH]c12 [OSI-027] (partner 0.5 µM)
How it was run: as §1

JZL-184 + Pemetrexed = compound: C1CN(CCC1C(C2=CC3=C(C=C2)OCO3)(C4=CC5=C(C=C4)OCO5)O)C(=O)OC6=CC=C(C=C6)[N+](=O)[O-] [JZL-184] + Nc1nc2[nH]cc(CCc3ccc(C(=O)N[C@@H](CCC(=O)O)C(=O)O)cc3)c2c(=O)[nH]1 [Pemetrexed] (partner 0.2 µM)
How it was run: as §1

JZL-184 + Luminespib = compound: C1CN(CCC1C(C2=CC3=C(C=C2)OCO3)(C4=CC5=C(C=C4)OCO5)O)C(=O)OC6=CC=C(C=C6)[N+](=O)[O-] [JZL-184] + CCNC(=O)c1noc(-c2cc(C(C)C)c(O)cc2O)c1-c1ccc(CN2CCOCC2)cc1 [Luminespib] (partner 0.01 µM)
How it was run: as §1

JZL-184 + Lapatinib = compound: C1CN(CCC1C(C2=CC3=C(C=C2)OCO3)(C4=CC5=C(C=C4)OCO5)O)C(=O)OC6=CC=C(C=C6)[N+](=O)[O-] [JZL-184] + CS(=O)(=O)CCNCc1ccc(-c2ccc3ncnc(Nc4ccc(OCc5cccc(F)c5)c(Cl)c4)c3c2)o1 [Lapatinib] (partner 2 µM)
How it was run: as §1

JZL-184 + Pictilisib = compound: C1CN(CCC1C(C2=CC3=C(C=C2)OCO3)(C4=CC5=C(C=C4)OCO5)O)C(=O)OC6=CC=C(C=C6)[N+](=O)[O-] [JZL-184] + CS(=O)(=O)N1CCN(Cc2cc3nc(-c4cccc5[nH]ncc45)nc(N4CCOCC4)c3s2)CC1 [Pictilisib] (partner 1 µM)
How it was run: as §1

JZL-184 + Linsitinib = compound: C1CN(CCC1C(C2=CC3=C(C=C2)OCO3)(C4=CC5=C(C=C4)OCO5)O)C(=O)OC6=CC=C(C=C6)[N+](=O)[O-] [JZL-184] + C[C@]1(O)C[C@@H](c2nc(-c3ccc4ccc(-c5ccccc5)nc4c3)c3c(N)nccn32)C1 [Linsitinib] (partner 1 µM)
How it was run: as §1

JZL-184 + Phenformin = compound: C1CN(CCC1C(C2=CC3=C(C=C2)OCO3)(C4=CC5=C(C=C4)OCO5)O)C(=O)OC6=CC=C(C=C6)[N+](=O)[O-] [JZL-184] + N=C(N)NC(=N)NCCc1ccccc1 [Phenformin] (partner 250 µM)
How it was run: as §1

JZL-184 + Foretinib = compound: C1CN(CCC1C(C2=CC3=C(C=C2)OCO3)(C4=CC5=C(C=C4)OCO5)O)C(=O)OC6=CC=C(C=C6)[N+](=O)[O-] [JZL-184] + COc1cc2c(Oc3ccc(NC(=O)C4(C(=O)Nc5ccc(F)cc5)CC4)cc3F)ccnc2cc1OCCCN1CCOCC1 [Foretinib] (partner 0.25 µM)
How it was run: as §1

JZL-184 + Crizotinib = compound: C1CN(CCC1C(C2=CC3=C(C=C2)OCO3)(C4=CC5=C(C=C4)OCO5)O)C(=O)OC6=CC=C(C=C6)[N+](=O)[O-] [JZL-184] + C[C@@H](Oc1cc(-c2cnn(C3CCNCC3)c2)cnc1N)c1c(Cl)ccc(F)c1Cl [Crizotinib] (partner 1 µM)
How it was run: as §1

JZL-184 + Dasatinib = compound: C1CN(CCC1C(C2=CC3=C(C=C2)OCO3)(C4=CC5=C(C=C4)OCO5)O)C(=O)OC6=CC=C(C=C6)[N+](=O)[O-] [JZL-184] + Cc1nc(Nc2ncc(C(=O)Nc3c(C)cccc3Cl)s2)cc(N2CCN(CCO)CC2)n1 [Dasatinib] (partner 0.075 µM)
How it was run: as §1

JZL-184 + Bortezomib = compound: C1CN(CCC1C(C2=CC3=C(C=C2)OCO3)(C4=CC5=C(C=C4)OCO5)O)C(=O)OC6=CC=C(C=C6)[N+](=O)[O-] [JZL-184] + CC(C)C[C@H](NC(=O)[C@H](Cc1ccccc1)NC(=O)c1cnccn1)B(O)O [Bortezomib] (partner 0.002 µM)
How it was run: as §1

JZL-184 + Tozasertib = compound: C1CN(CCC1C(C2=CC3=C(C=C2)OCO3)(C4=CC5=C(C=C4)OCO5)O)C(=O)OC6=CC=C(C=C6)[N+](=O)[O-] [JZL-184] + Cc1cc(Nc2cc(N3CCN(C)CC3)nc(Sc3ccc(NC(=O)C4CC4)cc3)n2)n[nH]1 [Tozasertib] (partner 0.1 µM)
How it was run: as §1

NCI-H1563
relative viability (JZL-184; 0.04 µM): 0.943
relative viability (JZL-184; 0.4 µM): 1.05
relative viability (JZL-184; 1.265 µM): 1.02
relative viability (JZL-184; 4 µM): 0.934
relative viability (JZL-184 + Alpelisib; first compound 0.04 µM): 0.934
relative viability (JZL-184 + Alpelisib; first compound 0.4 µM): 0.964
relative viability (JZL-184 + Alpelisib; first compound 1.265 µM): 0.899
relative viability (JZL-184 + Alpelisib; first compound 4 µM): 0.914
relative viability (JZL-184 + OSI-027; first compound 0.04 µM): 0.794
relative viability (JZL-184 + OSI-027; first compound 0.4 µM): 0.729
relative viability (JZL-184 + OSI-027; first compound 1.265 µM): 0.776
relative viability (JZL-184 + OSI-027; first compound 4 µM): 0.7
relative viability (JZL-184 + Pemetrexed; first compound 0.04 µM): 0.851
relative viability (JZL-184 + Pemetrexed; first compound 0.4 µM): 0.776
relative viability (JZL-184 + Pemetrexed; first compound 1.265 µM): 0.821
relative viability (JZL-184 + Pemetrexed; first compound 4 µM): 0.739
relative viability (JZL-184 + Luminespib; first compound 0.04 µM): 0.513
relative viability (JZL-184 + Luminespib; first compound 0.4 µM): 0.571
relative viability (JZL-184 + Luminespib; first compound 1.265 µM): 0.535
relative viability (JZL-184 + Luminespib; first compound 4 µM): 0.511
relative viability (JZL-184 + Lapatinib; first compound 0.04 µM): 0.951
relative viability (JZL-184 + Lapatinib; first compound 0.4 µM): 0.923
relative viability (JZL-184 + Lapatinib; first compound 1.265 µM): 0.972
relative viability (JZL-184 + Lapatinib; first compound 4 µM): 0.868
relative viability (JZL-184 + Pictilisib; first compound 0.04 µM): 0.673
relative viability (JZL-184 + Pictilisib; first compound 0.4 µM): 0.676
relative viability (JZL-184 + Pictilisib; first compound 1.265 µM): 0.669
relative viability (JZL-184 + Pictilisib; first compound 4 µM): 0.675
relative viability (JZL-184 + Linsitinib; first compound 0.04 µM): 1.24
relative viability (JZL-184 + Linsitinib; first compound 0.4 µM): 1.31
relative viability (JZL-184 + Linsitinib; first compound 1.265 µM): 1.21
relative viability (JZL-184 + Linsitinib; first compound 4 µM): 1.09
relative viability (JZL-184 + Phenformin; first compound 0.04 µM): 0.694
relative viability (JZL-184 + Phenformin; first compound 0.4 µM): 0.636
relative viability (JZL-184 + Phenformin; first compound 1.265 µM): 0.681
relative viability (JZL-184 + Phenformin; first compound 4 µM): 0.64
relative viability (JZL-184 + Foretinib; first compound 0.04 µM): 0.937
relative viability (JZL-184 + Foretinib; first compound 0.4 µM): 0.888
relative viability (JZL-184 + Foretinib; first compound 1.265 µM): 0.897
relative viability (JZL-184 + Foretinib; first compound 4 µM): 0.959
relative viability (JZL-184 + Crizotinib; first compound 0.04 µM): 0.931
relative viability (JZL-184 + Crizotinib; first compound 0.4 µM): 0.903
relative viability (JZL-184 + Crizotinib; first compound 1.265 µM): 0.868
relative viability (JZL-184 + Crizotinib; first compound 4 µM): 0.88
relative viability (JZL-184 + Dasatinib; first compound 0.04 µM): 0.515
relative viability (JZL-184 + Dasatinib; first compound 0.4 µM): 0.374
relative viability (JZL-184 + Dasatinib; first compound 1.265 µM): 0.453
relative viability (JZL-184 + Dasatinib; first compound 4 µM): 0.474
relative viability (JZL-184 + Bortezomib; first compound 0.04 µM): 0.79
relative viability (JZL-184 + Bortezomib; first compound 0.4 µM): 0.797
relative viability (JZL-184 + Bortezomib; first compound 1.265 µM): 0.86
relative viability (JZL-184 + Bortezomib; first compound 4 µM): 0.933

NCI-H1623
relative viability (JZL-184; 0.04 µM): 0.941
relative viability (JZL-184; 0.4 µM): 0.988
relative viability (JZL-184; 1.265 µM): 1
relative viability (JZL-184; 4 µM): 0.937
relative viability (JZL-184 + Tozasertib; first compound 0.04 µM): 0.453
relative viability (JZL-184 + Tozasertib; first compound 0.4 µM): 0.442
relative viability (JZL-184 + Tozasertib; first compound 1.265 µM): 0.442
relative viability (JZL-184 + Tozasertib; first compound 4 µM): 0.482
relative viability (JZL-184 + OSI-027; first compound 0.04 µM): 0.463
relative viability (JZL-184 + OSI-027; first compound 0.4 µM): 0.438
relative viability (JZL-184 + OSI-027; first compound 1.265 µM): 0.464
relative viability (JZL-184 + OSI-027; first compound 4 µM): 0.446
relative viability (JZL-184 + Luminespib; first compound 0.04 µM): 0.389
relative viability (JZL-184 + Luminespib; first compound 0.4 µM): 0.411
relative viability (JZL-184 + Luminespib; first compound 1.265 µM): 0.626
relative viability (JZL-184 + Luminespib; first compound 4 µM): 0.585
relative viability (JZL-184 + Phenformin; first compound 0.04 µM): 0.566
relative viability (JZL-184 + Phenformin; first compound 0.4 µM): 0.551
relative viability (JZL-184 + Phenformin; first compound 1.265 µM): 0.595
relative viability (JZL-184 + Phenformin; first compound 4 µM): 0.565
relative viability (JZL-184 + Foretinib; first compound 0.04 µM): 0.904
relative viability (JZL-184 + Foretinib; first compound 0.4 µM): 0.818
relative viability (JZL-184 + Foretinib; first compound 1.265 µM): 0.944
relative viability (JZL-184 + Foretinib; first compound 4 µM): 0.807
relative viability (JZL-184 + Dasatinib; first compound 0.04 µM): 0.512
relative viability (JZL-184 + Dasatinib; first compound 0.4 µM): 0.561
relative viability (JZL-184 + Dasatinib; first compound 1.265 µM): 0.573
relative viability (JZL-184 + Dasatinib; first compound 4 µM): 0.47
